Source: ChEMBL document CHEMBL2176882 (Bioorg Med Chem Lett, 2012)
In brackets after ≈: the same amount, converted by molar mass. Values belong to the compound of their own block, whether it stands above or below them. Activity calls are given as the source filed them. The calls are words filed in the database; no cut-off is given here.

Columns and labels:
Blood [1] = assay: Antiinflammatory activity in human whole blood assessed as inhibition of LPS-induced IL10 production; type: functional, tissue-based
Blood [2] = assay: Antiinflammatory activity in human whole blood assessed as inhibition of LPS-induced IL12p70 production; type: functional, tissue-based
Blood [3] = assay: Antiinflammatory activity in human whole blood assessed as inhibition of LPS-induced TNFalpha production; type: functional, tissue-based
[4] = target: Bromodomain-containing protein 2 (Homo sapiens, UniProt P25440); assay: Binding affinity to human BRD2 assessed as inhibition of Alexa Fluor 488 binding after 60 mins by fluorescence anisotropic analysis
Blood [5] = assay: Antiinflammatory activity in human whole blood assessed as inhibition of LPS-induced IL8 production; type: functional, tissue-based
PBMC [6] = assay: Cytotoxicity against human PBMC assessed as decrease in ATP level; type: cell-based
[7] = target: Bromodomain-containing protein 3 (Homo sapiens, UniProt Q15059); assay: Binding affinity to BRD3 assessed as inhibition of Alexa Fluor 488 binding after 60 mins by fluorescence anisotropic analysis
Blood [8] = assay: Antiinflammatory activity in human whole blood assessed as inhibition of LPS-induced IFNgamma production; type: functional, tissue-based
[9] = target: Bromodomain-containing protein 4 (Homo sapiens, UniProt O60885); assay: Binding affinity to BRD4 assessed as inhibition of Alexa Fluor 488 binding after 60 mins by fluorescence anisotropic analysis
PBMC [10] = assay: cells; conditions: Homo sapiens, read-out: pIC50 (converted)
Description: Antiinflammatory activity in human PBMC assessed as inhibition of LPS-induced IL6 production

[11] = Aqueous solubility of the compound at pH 5; type: physicochemical; conditions: aqueous medium
HepG2 = assay: Inhibition of BET in human HepG2 cells assessed as upregulation of ApoA1 after 18 hrs by luciferase reporter gene assay; type: cell-based
Cytochrome P450 3A4 = Cytochrome P450 3A4 (Homo sapiens, UniProt P08684); assay: Inhibition of CYP3A4 using diethoxyfluoresin as substrate; type: ADME
Cytochrome P450 2C9 = Cytochrome P450 2C9 (Homo sapiens, UniProt P11712); assay: Inhibition of CYP2C9; type: ADME
[12] = Fraction unbound in dog blood after 4 hrs by rapid equilibrium dialysis; type: ADME, tissue-based, Canis lupus familiaris
Salmonella typhimurium [13] = assay: Mutagenicity against Salmonella typhimurium TA1535 by AMES test in absence of S9 fraction; type: toxicity, organism-based; conditions: salmonella enterica subsp. enterica serovar typhimurium
[14] = Oral bioavailability in mini pig; type: ADME, organism-based, Sus scrofa; conditions: in vivo
Salmonella typhimurium [15] = assay: Mutagenicity against Salmonella typhimurium TA1537 by AMES test in absence of S9 fraction; type: toxicity, organism-based; conditions: salmonella enterica subsp. enterica serovar typhimurium
Salmonella typhimurium [16] = assay: Mutagenicity against Salmonella typhimurium TA98 by AMES test in absence of S9 fraction; type: toxicity, organism-based; conditions: salmonella enterica subsp. enterica serovar typhimurium
[17] = target: 3',5'-cyclic-AMP phosphodiesterase 4B (Homo sapiens, UniProt Q07343); assay: Inhibition of PDE4B
[18] = Half life in mini pig; type: ADME, organism-based, Sus scrofa; conditions: in vivo
Escherichia coli [19] = assay: Mutagenicity against Escherichia coli WP2uvrA by AMES test in presence of S9 fraction; type: toxicity, organism-based
[20] = Oral bioavailability in dog; type: ADME, organism-based, Canis lupus familiaris; conditions: in vivo
[21] = Fraction unbound in mouse blood after 4 hrs by rapid equilibrium dialysis; type: ADME, tissue-based
Escherichia coli [22] = assay: Mutagenicity against Escherichia coli WP2uvrA by AMES test in absence of S9 fraction; type: toxicity, organism-based
[23] = Volume of distribution in mouse; type: ADME, organism-based; conditions: in vivo
[24] = Volume of distribution in dog; type: ADME, organism-based, Canis lupus familiaris; conditions: in vivo
Mus musculus [25] = assay: Antiinflammatory activity in mouse endotoxaemia model assessed as protection against LPS-induced mortality at 10 mg/kg, iv administered 1 hr prior to LPS challenge measured up to 4 days; type: functional, organism-based; set-up: dose 10 mg/kg
Mus musculus [26] = assay: Antiinflammatory activity in mouse endotoxaemia model assessed as protection against LPS-induced mortality at 10 mg/kg, iv administered 90 mins post LPS challenge measured up to 4 days; type: functional, organism-based; set-up: dose 10 mg/kg
Salmonella typhimurium [27] = assay: Mutagenicity against Salmonella typhimurium TA1537 by AMES test in presence of S9 fraction; type: toxicity, organism-based; conditions: salmonella enterica subsp. enterica serovar typhimurium
[28] = Blood clearance in mini pig; type: ADME, organism-based, Sus scrofa
Salmonella typhimurium [29] = assay: Mutagenicity against Salmonella typhimurium TA1535 by AMES test in presence of S9 fraction; type: toxicity, organism-based; conditions: salmonella enterica subsp. enterica serovar typhimurium
Salmonella typhimurium [30] = assay: Mutagenicity against Salmonella typhimurium TA100 by AMES test in absence of S9 fraction; type: toxicity, organism-based; conditions: salmonella enterica subsp. enterica serovar typhimurium
[31] = Blood clearance in dog; type: ADME, organism-based, Canis lupus familiaris
Salmonella typhimurium [32] = assay: Mutagenicity against Salmonella typhimurium TA98 by AMES test in presence of S9 fraction; type: toxicity, organism-based; conditions: salmonella enterica subsp. enterica serovar typhimurium
[33] = Fraction unbound in rat blood after 4 hrs by rapid equilibrium dialysis; type: ADME, tissue-based
[34] = Fraction unbound in human blood after 4 hrs by rapid equilibrium dialysis; type: ADME, tissue-based
[35] = Blood clearance in mouse; type: ADME, organism-based
Salmonella typhimurium [36] = assay: Mutagenicity against Salmonella typhimurium TA100 by AMES test in presence of S9 fraction; type: toxicity, organism-based; conditions: salmonella enterica subsp. enterica serovar typhimurium
Mus musculus [37] = assay: Antiinflammatory activity in mouse endotoxaemia model assessed as inhibition of LPS-induced TNFalpha production at 0.1 to 30 mg/kg, iv administered 1 hr prior to LPS-challenge measured after 90 mins by ELISA relative to vehicle-treated control; type: functional, organism-based
[38] = Half life in dog; type: ADME, organism-based, Canis lupus familiaris; conditions: in vivo
[39] = Volume of distribution in mini pig; type: ADME, organism-based, Sus scrofa; conditions: in vivo
Mus musculus [40] = assay: Antiinflammatory activity in mouse endotoxaemia model assessed as inhibition of LPS-induced IL6 production at 10 mg/kg, iv administered 1 hr prior to LPS challenge measured after 90 mins by ELISA relative to vehicle-treated control; type: functional, organism-based; set-up: dose 10 mg/kg
Albumin = Albumin (Homo sapiens, UniProt P02768); assay: Binding affinity to human serum albumin; type: ADME; conditions: read-out: PB (converted)
Albumin, sequence (P02768 whole entry): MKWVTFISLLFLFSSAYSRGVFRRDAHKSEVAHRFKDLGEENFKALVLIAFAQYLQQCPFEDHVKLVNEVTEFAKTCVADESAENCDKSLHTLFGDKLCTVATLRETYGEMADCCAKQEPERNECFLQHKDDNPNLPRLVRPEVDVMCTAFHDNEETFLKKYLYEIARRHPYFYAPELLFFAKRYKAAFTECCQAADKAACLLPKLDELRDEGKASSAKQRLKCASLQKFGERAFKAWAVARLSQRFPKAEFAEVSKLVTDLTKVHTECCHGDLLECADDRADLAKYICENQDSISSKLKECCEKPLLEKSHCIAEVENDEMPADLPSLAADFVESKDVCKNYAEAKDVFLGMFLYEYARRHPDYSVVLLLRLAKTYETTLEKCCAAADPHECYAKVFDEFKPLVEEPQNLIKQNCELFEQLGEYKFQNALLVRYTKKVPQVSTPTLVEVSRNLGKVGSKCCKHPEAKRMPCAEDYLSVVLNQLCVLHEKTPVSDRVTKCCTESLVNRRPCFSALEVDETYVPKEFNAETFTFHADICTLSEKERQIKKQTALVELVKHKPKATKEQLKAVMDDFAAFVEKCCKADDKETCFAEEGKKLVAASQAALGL

Bromodomain-containing protein 3, sequence (Q15059 whole entry): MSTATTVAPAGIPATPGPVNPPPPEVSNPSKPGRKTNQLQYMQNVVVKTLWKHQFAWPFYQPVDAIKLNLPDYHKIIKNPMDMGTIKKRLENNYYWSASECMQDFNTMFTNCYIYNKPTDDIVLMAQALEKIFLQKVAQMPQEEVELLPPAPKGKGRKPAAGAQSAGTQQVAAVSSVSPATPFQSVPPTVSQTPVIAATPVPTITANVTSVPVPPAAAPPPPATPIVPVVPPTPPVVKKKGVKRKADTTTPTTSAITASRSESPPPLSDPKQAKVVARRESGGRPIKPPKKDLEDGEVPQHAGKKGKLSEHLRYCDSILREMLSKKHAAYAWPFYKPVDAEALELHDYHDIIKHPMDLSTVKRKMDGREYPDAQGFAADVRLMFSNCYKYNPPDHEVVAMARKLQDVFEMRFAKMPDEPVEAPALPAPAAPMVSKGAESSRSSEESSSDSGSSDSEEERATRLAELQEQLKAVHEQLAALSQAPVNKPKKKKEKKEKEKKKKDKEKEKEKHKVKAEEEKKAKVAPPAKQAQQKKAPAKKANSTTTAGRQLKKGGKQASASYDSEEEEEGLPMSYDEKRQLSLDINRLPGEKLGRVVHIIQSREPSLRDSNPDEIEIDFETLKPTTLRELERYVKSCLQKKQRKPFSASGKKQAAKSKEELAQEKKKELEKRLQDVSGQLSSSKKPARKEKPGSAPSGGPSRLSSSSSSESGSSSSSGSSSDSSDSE
Bromodomain-containing protein 2, sequence (P25440 whole entry): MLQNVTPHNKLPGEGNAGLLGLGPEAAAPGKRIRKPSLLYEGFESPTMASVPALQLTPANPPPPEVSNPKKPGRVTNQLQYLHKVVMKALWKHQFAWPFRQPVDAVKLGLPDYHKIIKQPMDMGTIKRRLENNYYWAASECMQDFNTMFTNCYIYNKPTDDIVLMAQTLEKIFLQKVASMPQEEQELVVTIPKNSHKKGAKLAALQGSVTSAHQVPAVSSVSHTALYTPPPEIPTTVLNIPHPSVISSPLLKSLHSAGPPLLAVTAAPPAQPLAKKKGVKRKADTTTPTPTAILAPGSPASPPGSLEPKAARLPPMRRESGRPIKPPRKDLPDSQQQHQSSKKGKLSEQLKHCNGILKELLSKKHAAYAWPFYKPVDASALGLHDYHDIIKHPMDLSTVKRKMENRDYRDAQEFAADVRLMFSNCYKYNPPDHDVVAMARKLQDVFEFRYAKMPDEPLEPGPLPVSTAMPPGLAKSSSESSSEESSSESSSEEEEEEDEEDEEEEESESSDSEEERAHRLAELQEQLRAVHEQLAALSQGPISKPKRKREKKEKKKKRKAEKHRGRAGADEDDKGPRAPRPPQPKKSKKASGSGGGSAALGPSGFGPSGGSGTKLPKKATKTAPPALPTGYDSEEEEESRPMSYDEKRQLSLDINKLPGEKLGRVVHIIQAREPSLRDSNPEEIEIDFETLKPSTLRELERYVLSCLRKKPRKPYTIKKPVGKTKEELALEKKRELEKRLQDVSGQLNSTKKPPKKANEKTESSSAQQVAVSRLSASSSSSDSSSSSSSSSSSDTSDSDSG
Cytochrome P450 3A4, sequence (P08684 whole entry): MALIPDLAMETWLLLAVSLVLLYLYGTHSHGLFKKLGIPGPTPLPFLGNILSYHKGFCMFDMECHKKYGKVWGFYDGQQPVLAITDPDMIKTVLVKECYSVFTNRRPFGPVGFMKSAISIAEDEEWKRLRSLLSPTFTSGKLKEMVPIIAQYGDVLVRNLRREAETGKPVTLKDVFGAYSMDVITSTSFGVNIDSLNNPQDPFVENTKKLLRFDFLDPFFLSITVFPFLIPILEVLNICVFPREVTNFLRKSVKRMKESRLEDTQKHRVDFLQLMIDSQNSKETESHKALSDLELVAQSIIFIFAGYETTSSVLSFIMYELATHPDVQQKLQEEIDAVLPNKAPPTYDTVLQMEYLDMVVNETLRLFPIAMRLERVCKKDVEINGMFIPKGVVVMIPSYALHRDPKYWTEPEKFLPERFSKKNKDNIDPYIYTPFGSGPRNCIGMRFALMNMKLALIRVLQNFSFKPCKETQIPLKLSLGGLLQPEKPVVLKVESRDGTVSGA
Cytochrome P450 2C9, sequence (P11712 whole entry): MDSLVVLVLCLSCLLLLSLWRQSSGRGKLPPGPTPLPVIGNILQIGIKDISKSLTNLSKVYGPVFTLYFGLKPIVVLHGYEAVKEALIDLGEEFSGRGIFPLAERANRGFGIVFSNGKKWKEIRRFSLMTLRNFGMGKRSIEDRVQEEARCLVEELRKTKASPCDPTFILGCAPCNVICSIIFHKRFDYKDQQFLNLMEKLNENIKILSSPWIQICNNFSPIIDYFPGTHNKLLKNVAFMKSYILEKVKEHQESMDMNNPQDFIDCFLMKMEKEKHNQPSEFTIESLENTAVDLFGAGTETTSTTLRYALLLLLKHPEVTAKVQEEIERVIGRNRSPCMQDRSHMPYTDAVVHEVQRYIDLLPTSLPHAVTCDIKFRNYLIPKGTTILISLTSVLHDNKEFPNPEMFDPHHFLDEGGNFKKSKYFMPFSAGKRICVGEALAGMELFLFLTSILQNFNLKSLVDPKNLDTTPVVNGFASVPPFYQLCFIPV
3',5'-cyclic-AMP phosphodiesterase 4B, sequence (Q07343 whole entry): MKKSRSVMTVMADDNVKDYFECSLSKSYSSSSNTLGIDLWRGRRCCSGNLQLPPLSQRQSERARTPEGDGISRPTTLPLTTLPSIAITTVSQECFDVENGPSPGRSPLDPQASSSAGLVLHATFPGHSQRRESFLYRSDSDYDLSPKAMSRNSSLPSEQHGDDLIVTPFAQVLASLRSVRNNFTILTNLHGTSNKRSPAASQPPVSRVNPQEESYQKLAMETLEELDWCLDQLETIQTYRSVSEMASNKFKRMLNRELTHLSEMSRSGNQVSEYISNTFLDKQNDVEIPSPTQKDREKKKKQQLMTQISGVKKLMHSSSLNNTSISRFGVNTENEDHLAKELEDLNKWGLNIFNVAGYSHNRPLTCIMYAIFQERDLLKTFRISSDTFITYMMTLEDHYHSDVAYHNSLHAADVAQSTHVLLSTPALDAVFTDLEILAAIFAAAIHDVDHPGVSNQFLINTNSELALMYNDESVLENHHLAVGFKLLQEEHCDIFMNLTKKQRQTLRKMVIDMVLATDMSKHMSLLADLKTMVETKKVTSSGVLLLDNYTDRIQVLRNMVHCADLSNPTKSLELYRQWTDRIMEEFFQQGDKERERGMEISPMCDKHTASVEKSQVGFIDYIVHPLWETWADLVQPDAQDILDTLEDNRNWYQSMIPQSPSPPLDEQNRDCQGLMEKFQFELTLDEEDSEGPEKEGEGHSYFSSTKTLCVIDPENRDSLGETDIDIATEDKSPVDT

Structure (SMILES): COc1cc2c(cc1-c1c(C)noc1C)ncc1[nH]c(=O)n(Cc3ccccn3)c12
Activity (Blood [1]): Active | Activity (Blood [2]): inactive | Activity (Blood [3]): Active | IC50 [4]: 1580 nM | Activity (Blood [5]): inactive | Activity (PBMC [6]): Non-toxic | IC50 [7]: 501 nM | Activity (Blood [8]): inactive | IC50 [9]: 1000 nM

Structure (SMILES): COc1cc2c(NC3CCCCC3)c(C(N)=O)cnc2cc1-c1c(C)noc1C
Activity (Blood [1]): Active | IC50 (PBMC [10]): 1000 nM | Activity (Blood [2]): inactive | solubility [11]: 236 µg/mL (≈ 598 µM) | Activity (Blood [3]): Active | IC50 [4]: 2000 nM | Activity (Blood [5]): inactive | Activity (PBMC [6]): Non-toxic | IC50 [7]: 501 nM | pEC170 (HepG2): 6.4 | Activity (Blood [8]): inactive | IC50 (Cytochrome P450 3A4): 6100 nM | IC50 [9]: 1260 nM | IC50 (Cytochrome P450 2C9): 4300 nM

Structure (SMILES): Cc1noc(C)c1-c1ccc2c(Nc3ccccc3F)c(C(=O)O)cnc2c1
IC50 [4]: 1580 nM | IC50 [7]: 631 nM | pEC170 (HepG2): 5.7 | IC50 [9]: 1260 nM

Structure (SMILES): COc1cc2c(cc1-c1c(C)noc1C)ncc1[nH]c(=O)n([C@H](C)c3ccccn3)c12
Activity (Blood [1]): Active | fraction unbound at 4 h [12]: 0.09 | IC50 (PBMC [10]): 200 nM | Activity (Salmonella typhimurium [13]): Non-toxic | Activity (Blood [2]): inactive | bioavailability [14]: 65% | Activity (Salmonella typhimurium [15]): Non-toxic | Activity (Salmonella typhimurium [16]): Non-toxic | IC50 [17]: 3980 nM | half-life [18]: 1.2 h | Activity (Blood [3]): Active | Activity (Escherichia coli [19]): Non-toxic | bioavailability [20]: 16% | Activity (Blood [5]): inactive | Activity (PBMC [6]): Non-toxic | fraction unbound at 4 h [21]: 0.03 | Activity (Escherichia coli [22]): Non-toxic | Vd [23]: 1.2 L/kg | Vd [24]: 3 L/kg | Activity (Mus musculus [25]): Active | Activity (Mus musculus [26]): Active | Activity (Salmonella typhimurium [27]): Non-toxic | clearance [28]: 15 mL/min/kg | Activity (Salmonella typhimurium [29]): Non-toxic | Activity (Salmonella typhimurium [30]): Non-toxic | clearance [31]: 38 mL/min/kg | Activity (Salmonella typhimurium [32]): Non-toxic | pEC170 (HepG2): 7 | fraction unbound at 4 h [33]: 0.06 | fraction unbound at 4 h [34]: 0.05 | clearance [35]: 8 mL/min/kg | Activity (Blood [8]): inactive | Activity (Salmonella typhimurium [36]): Non-toxic | inhibition (Mus musculus [37]): inactive | half-life [38]: 1.2 h | Vd [39]: 1.6 L/kg | inhibition (Mus musculus [40]): Active

Structure (SMILES): COc1cc2c(cc1-c1c(C)noc1C)ncc1[nH]c(=O)n(-c3ccccc3F)c12
IC50 [4]: 2510 nM | IC50 [7]: 631 nM | pEC170 (HepG2): 6.1 | IC50 [9]: 1260 nM

Continued by falling IC50 [7], values first:

IC50 [7]: 631 nM
Structure (SMILES): COc1cc2c(cc1-c1c(C)noc1C)ncc1[nH]c(=O)n([C@@H](C)c3ccccn3)c12
Activity (Blood [1]): Active | Activity (Blood [2]): inactive | Activity (Blood [3]): Active | Activity (Blood [5]): inactive | Activity (PBMC [6]): Non-toxic | Activity (Blood [8]): inactive

IC50 [4]: 501 nM | fraction unbound (Albumin): 0.023 | IC50 [7]: 398 nM | IC50 [9]: 501 nM
Structure (SMILES): COc1cc2c(cc1-c1c(C)noc1C)ncc1[nH]c(=O)n(-c3ccccc3C(C)(C)C)c12
Activity (Blood [1]): Active | Activity (Blood [2]): inactive | Activity (Blood [3]): Active | Activity (Blood [5]): inactive | Activity (PBMC [6]): Non-toxic | pEC170 (HepG2): 7.3 | Activity (Blood [8]): inactive

IC50 [4]: 501 nM | IC50 [7]: 251 nM | IC50 [9]: 398 nM
Structure (SMILES): COc1cc2c(cc1-c1c(C)noc1C)ncc1[nH]c(=O)n(Cc3ccccc3)c12
Activity (Blood [1]): Active | IC50 (PBMC [10]): 100 nM | Activity (Blood [2]): inactive | Activity (Blood [3]): Active | Activity (Blood [5]): inactive | Activity (PBMC [6]): Non-toxic | pEC170 (HepG2): 7.2 | Activity (Blood [8]): inactive
